# Assay results taken from patent US9622474B2, “N-(substituted)-5-fluoro-4-imino-3-methyl-2-oxo-3,4-dihydropyrimidine-1(2H)-carboxylate derivatives” (Adama Makhteshim Ltd., priority 2012, dated 2017).
# Experiments:
# [1] = tested on: Mycosphaerella graminicola; Anamorph: Septoria tritici; Bayer Code SEPTTR; experiment: Fungicidal activity vs. leaf blotch of wheat (SEPTTR), one-day protectant (1DP); assay type: in vivo, Septoria tritici on wheat plants (variety Yuma); details: rating of % disease control vs untreated, inoculated plants
# Procedure: (§1) Example A: Evaluation of Fungicidal Activity: Leaf Blotch of Wheat (Mycosphaerella graminicola; Anamorph: Septoria tritici; Bayer Code SEPTTR):
# (§2) Wheat plants (variety Yuma) were grown from seed in a greenhouse in 50% mineral soil/50% soil-less Metro mix until the first leaf was fully emerged, with 7-10 seedlings per pot. These plants were inoculated with an aqueous spore suspension of Septoria tritici either prior to or after fungicide treatments. After inoculation the plants were kept in 100% relative humidity (one day in a dark dew chamber followed by two to three days in a lighted dew chamber) to permit spores to germinate and infect the leaf. The plants were then transferred to a greenhouse for disease to develop.
# (§3) The following table presents the activity of typical compounds of the present disclosure when evaluated in these experiments. The effectiveness of the test compounds in controlling disease was determined by assessing the severity of disease on treated plants, then converting the severity to percent control based on the level of disease on untreated, inoculated plants.
# [2] = tested on: Mycosphaerella graminicola; Anamorph: Septoria tritici; Bayer Code SEPTTR; experiment: Fungicidal activity vs. leaf blotch of wheat (SEPTTR), three-day curative (3DC); assay type: in vivo, Septoria tritici on wheat plants (variety Yuma); details: rating of % disease control vs untreated, inoculated plants
# Procedure: as §1, §2, §3
SMILES,SEPTTR 100 PPM 1DP [1],melting point,SEPTTR 100 PPM 3DC [2]
"COc1ccc(OC(=O)n2cc(F)c(=N)n(C)c2=O)cc1 [Compound 1, 4-methoxyphenyl 5-fluoro-4-imino-3-methyl-2-oxo-3,4-dihydropyrimidine-1(2H)-carboxylate]",A (76-100),135.6 to 137.1 °C,A (76-100)
COc1ccc(OC(=O)/N=c2/c(F)cn(C(=O)Oc3ccc(OC)cc3)c(=O)n2C)cc1 [Compound 2],A (76-100),161.8 to 165.6 °C,A (76-100)
Cc1ccc(OC(=O)n2cc(F)c(=N)n(C)c2=O)cc1 [Compound 3],A (76-100),109 to 110.2 °C,A (76-100)
Cn1c(=N)c(F)cn(C(=O)Oc2ccccc2)c1=O [Compound 4],A (76-100),86.4 to 87.6 °C,A (76-100)
